Data published in patent US9757375B2, “Compounds that inhibit human DNA ligases and methods of treating cancer” (University of Maryland, Baltimore, priority 2007, dated 2017).
Like-named read-outs stand apart in the source and are kept apart here.

Legend:
[1] = tested on: MCF7, HCT116, HeLa, and MCF10A cells; test: Survival assay on cell panel (FIG. 9); format: cell-based, human; details: Homo sapiens; cell line not stated
Source text: FIG. 9. […] A, effect of L67 (left) and L189 (right) on the survival of MCF7 (Δ), HCT116 (□), HeLa (⋄), and MCF10A (upsidedown triangle) cells. B, normal breast epithelial MCF10A cells (open symbols) and breast cancer MCF7 cells (filled symbols) in the absence (circles) or presence of 3 μmol/L of L67 (squares) were exposed to increasing concentrations of MMS (left). Normal breast epithelial MCF10A cells (open symbols) and colon cancer HCT116 cells (filled symbols) in the absence (circles) or presence of 20 μmol/L of L189 (squares) were exposed to increasing doses of ionizing radiation (right). C, hLigI (I), hLigIIIα (III), and hLigIV (IV) were detected in extracts (400 μg) of the indicated cell lines by immunoblotting. To control for extract loading β-actin was also detected by immunoblotting.
For survival assays, cells were plated in 6 well plates and grown either in the absence or presence of ligase inhibitors. Where indicated, either MMS (0-50 μM) was added to the medium or the cells were irradiated in a Cs-137 irradiator (0-2.5 Gy). After two weeks, colonies were stained with crystal violet (Sigma) and then counted.

hLigI = molecular target: T1, hLigI (Homo sapiens, UniProt P18858); test: High-throughput fluorescence-based DNA joining (ligation) assay; format: biochemical
T1 construct: made in house
Procedure: (§1) Candidate ligase inhibitors identified by CADD were assayed for their ability to inhibit hLigI and T4 DNA ligase using a high-throughput, fluorescence energy transfer-based DNA joining assay (22). Duplicate reactions (30 μL) containing 10 pmol of nicked DNA substrate and either 0.25 pmol of hLigI or 10 units of T4 DNA ligase were incubated in the presence or absence of 100 μmol/L of the putative inhibitor. DNA binding by the candidate DNA ligase inhibitors was measured by displacement of ethidium bromide from DNA as previously described (30).
(§2) The method for screening compounds comprises testing the compound for the ability to inhibit human DNA ligases I, III and IV with a high throughput fluorescence-based ligation assay. In this assay, phosphodiester bond formation covalently links together two oligonucleotides, one of which is a fluorescent donor AF488 that is 11 nucleotides from the 3′ terminus and the other contains a fluorescence acceptor and quencher, BHQ1 that is 15 nucleotides from the 5′ terminus. When these oligonucleotides are present in separate duplexes and in the same nicked or intact duplex, there is no significant quenching of fluorescence because the donor and acceptor are too far apart. As single-strands neither the AF488 oligonucleotide nor the BHQ1 oligonucleotides have significant secondary structure. However, when these oligonucleotides are ligated together, the resultant single strand forms a stable hairpin structure, in which the AF488 and BHQ1 groups are very close together, resulting in efficient intra-molecular quenching of fluorescence. Thus, in the DNA joining assay, the DNA substrate is denatured after incubation with the DNA ligase and then renatured in the presence of a 20-fold excess of an oligonucleotide that is identical to the ligated strand containing the fluorescent door and acceptor except that it lacks these modifications. Using this assay, DNA joining, which results in reduced fluorescence at 518 nm, can be measured rapidly, quantitatively and with high-throughput using a fluorescence plate reader.
(§3) Applicants developed a novel high throughput fluorescence-based ligation assay by modifying the sequence of the oligos to optimize hairpin formation by the single strand ligated product of the high throughput fluorescence-based ligation assay of Chen et al (22). […] Compound stock solutions, which were 10 mM in 0.5% DMSO, were diluted in 0.5% DMSO. Human DNA ligases I and III were assayed with a nicked DNA substrate whereas as the substrate for human DNA ligase IV was two oligonucleotide duplexes with short complementary single strand ends.

T4 DNA ligase = molecular target: T2, T4 DNA ligase (Enterobacteria phage T4, UniProt P00970); test: High-throughput fluorescence-based DNA joining assay, non-specific inhibitor control; format: biochemical, bacteriophage T4; details: 100 μM; read-out: In vitro % inhib T4 100
T2 construct: purchased NEB
T2 sequence (P00970 1-487): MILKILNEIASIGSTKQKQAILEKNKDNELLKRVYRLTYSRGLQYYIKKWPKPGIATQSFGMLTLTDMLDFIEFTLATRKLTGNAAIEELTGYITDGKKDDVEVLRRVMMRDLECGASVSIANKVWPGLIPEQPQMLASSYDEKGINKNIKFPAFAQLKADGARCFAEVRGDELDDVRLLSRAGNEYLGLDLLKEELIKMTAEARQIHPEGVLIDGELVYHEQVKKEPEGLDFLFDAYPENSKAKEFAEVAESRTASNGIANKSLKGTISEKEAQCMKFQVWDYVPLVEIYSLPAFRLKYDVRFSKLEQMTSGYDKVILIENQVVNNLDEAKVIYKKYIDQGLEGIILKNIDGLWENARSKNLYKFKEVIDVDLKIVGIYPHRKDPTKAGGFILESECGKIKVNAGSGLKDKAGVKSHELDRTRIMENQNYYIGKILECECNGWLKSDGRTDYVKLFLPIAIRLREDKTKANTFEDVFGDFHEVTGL
Procedure: as §1
In addition, to identify compounds that may be non-specific inhibitors of DNA joining, the 192 compounds were also assayed for their ability to inhibit bacteriophage T4 DNA ligase, an enzyme that utilizes the same reaction mechanism as hLigI, has similar adenylation and OB-fold domains but lacks a DBD domain. (6) Although this is also an ATP-dependent DNA ligase, it lacks the domain containing the binding pocket targeted by the in silico screen. Compounds that inhibited T4 DNA ligase were eliminated as non-specific inhibitors that most likely bind to the DNA.

human DNA ligase IV = human DNA ligase IV (Homo sapiens, UniProt P49917); test: High-throughput fluorescence-based DNA joining (ligation) assay; format: biochemical
Source text: as §2, §3

human DNA ligase III = molecular target: T3, human DNA ligase III (Homo sapiens, UniProt P49916); test: as above; format: biochemical
T3 sequence (P49916 1-862 isoform P49916-4): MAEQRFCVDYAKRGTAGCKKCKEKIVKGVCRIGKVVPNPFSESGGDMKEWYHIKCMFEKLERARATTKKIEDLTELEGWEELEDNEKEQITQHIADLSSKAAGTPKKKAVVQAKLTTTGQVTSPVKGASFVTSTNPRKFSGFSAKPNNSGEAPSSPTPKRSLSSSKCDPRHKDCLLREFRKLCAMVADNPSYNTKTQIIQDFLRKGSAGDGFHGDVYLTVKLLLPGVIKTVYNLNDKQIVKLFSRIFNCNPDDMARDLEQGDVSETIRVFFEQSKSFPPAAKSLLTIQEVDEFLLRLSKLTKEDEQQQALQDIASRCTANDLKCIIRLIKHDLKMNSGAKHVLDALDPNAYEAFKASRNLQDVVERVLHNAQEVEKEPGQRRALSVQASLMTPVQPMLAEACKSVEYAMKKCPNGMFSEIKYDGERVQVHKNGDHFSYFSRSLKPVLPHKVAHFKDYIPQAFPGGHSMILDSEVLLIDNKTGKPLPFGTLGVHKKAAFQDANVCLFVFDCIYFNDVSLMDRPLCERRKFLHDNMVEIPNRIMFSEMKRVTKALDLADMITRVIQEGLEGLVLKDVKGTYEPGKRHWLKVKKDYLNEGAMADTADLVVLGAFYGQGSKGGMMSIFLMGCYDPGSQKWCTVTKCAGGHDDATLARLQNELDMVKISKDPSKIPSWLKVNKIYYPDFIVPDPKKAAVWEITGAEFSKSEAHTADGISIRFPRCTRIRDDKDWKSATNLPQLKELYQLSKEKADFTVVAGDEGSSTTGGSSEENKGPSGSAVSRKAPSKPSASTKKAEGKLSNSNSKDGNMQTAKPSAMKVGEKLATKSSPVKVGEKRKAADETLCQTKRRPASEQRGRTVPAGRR
Source text: as §2, §3

MCF10A cells = test: MTT cell growth assay; format: cell-based, human; details: Homo sapiens, MCF-10A; sections 'high concentrations (~50 μM)' and 'active in vitro that decreased cell growth'; same figures given in μM elsewhere in Table 6; read-out: IC50 MCF10A (head without unit)
Procedure: (§4) The activity of hits from the initial screen was further validated using the MTT assay. Briefly, MCF10A and HCT116 cells were seeded in 96 well plates at 300 and 1200 cells per well, respectively, and allowed to adhere overnight. The following day, serial dilutions of compounds in media were added to the cells in a final volume 200 μl. After incubation for 5 days, MTT reagent (3-(4,5-dimthylthiazol-2-yl)-2,5-diphenyltatrazolium) was added and incubation was continued for 4 h. Formazan crystals generated by reduction of the MTT reagent in mitochondria were solubilized with isopropanol prior to the measurement of absorbance at 560 nm wavelength in a plate reader.
To extend the results of the […] cell culture screening assay, a subset of compounds were tested in larger cultures. Different concentrations of Compounds 67 and 151 were added to asynchronous subconfluent populations of HCT116 and MCF10A cells. Asynchronous subconfluent populations of HCT116 and MCF10A cells were pre-treated with different concentrations of compound 64 prior to the addition of 3 aminobenzamide (2 mM) MMS (100 μM) or cis-platinum (1 μM). After incubation for 5 days, cell growth was measured by the MTT assay (16).

HCT116 cells [2] = test: MTT cell growth assay; format: cell-based, human; details: Homo sapiens, HCT-116
Procedure: as §4
After incubation for 5 days, cell growth was measured by the MTT assay (16).

HCT116 cells [3] = test: Screen for potentiation of DNA damaging agents (MMS, camptothecin, cis-platinum, 3 aminobenzamide, ionizing radiation); format: cell-based, human; details: compound alone vs combination with MMS (100 μM); 1 = no sensitization
Source text: The 192 human DNA ligase inhibitors were screened in parallel for effects on proliferation and the ability to potentiate the effects of several DNA damaging agents using two cell human lines, a colon cancer line HCT116 and a normal breast epithelial cell line MCF10A using a Biomek FX Laboratory Automation Workstation as described (23). The DNA damaging agents used, methyl methanesulfonate (MMS), camptothecin, cis-platinum, 3 aminobenzamide and ionizing radiation, are representatives of classes of agents used to treat cancer. Briefly, HCT116 and MCF10A cells were plated in 96 well plates such that the cultures were about 80% confluent after 5 days incubation. Compounds were added to the cultures at either 15 μM or 50 μM 1 day after plating. After incubation for 3 days, cell lysed in a solution containing 1.2% Igepal CA-630 and SYBR green that stains DNA (1:1000, Molecular Probes, Eugene, Oreg.). Subsequently, fluorescence was measured per well. The studies with DNA damaging agents were performed as follows. […] For ionizing radiation, cells were pre-incubated with the compounds at 50 μM for 1 hour prior to exposure to 2 gray of ionizing radiation. Cultures were incubated for 3 days and then treated as above.

T1 sequence (P18858 whole entry): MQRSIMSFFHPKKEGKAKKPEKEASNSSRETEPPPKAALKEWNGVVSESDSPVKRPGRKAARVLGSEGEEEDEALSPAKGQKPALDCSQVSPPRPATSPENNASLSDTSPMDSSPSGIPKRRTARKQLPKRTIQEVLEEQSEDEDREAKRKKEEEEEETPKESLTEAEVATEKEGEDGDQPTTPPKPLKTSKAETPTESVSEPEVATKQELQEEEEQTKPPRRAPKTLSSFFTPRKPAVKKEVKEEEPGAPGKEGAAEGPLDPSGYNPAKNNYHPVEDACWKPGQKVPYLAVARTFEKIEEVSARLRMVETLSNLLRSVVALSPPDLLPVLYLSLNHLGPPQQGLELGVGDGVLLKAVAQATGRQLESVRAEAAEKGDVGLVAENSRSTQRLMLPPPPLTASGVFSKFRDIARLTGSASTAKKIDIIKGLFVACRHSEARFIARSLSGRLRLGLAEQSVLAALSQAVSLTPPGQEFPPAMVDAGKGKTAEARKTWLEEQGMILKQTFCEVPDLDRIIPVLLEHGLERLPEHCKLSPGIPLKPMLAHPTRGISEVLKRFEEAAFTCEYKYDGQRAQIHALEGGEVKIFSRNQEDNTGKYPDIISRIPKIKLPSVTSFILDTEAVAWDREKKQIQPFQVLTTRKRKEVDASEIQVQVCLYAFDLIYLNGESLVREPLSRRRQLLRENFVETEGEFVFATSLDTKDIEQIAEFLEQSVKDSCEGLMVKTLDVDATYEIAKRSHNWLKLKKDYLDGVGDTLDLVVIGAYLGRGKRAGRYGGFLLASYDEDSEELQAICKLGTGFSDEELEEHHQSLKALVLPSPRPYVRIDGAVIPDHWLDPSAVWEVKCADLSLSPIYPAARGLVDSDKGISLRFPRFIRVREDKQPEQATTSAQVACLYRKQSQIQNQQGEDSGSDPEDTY
Sequence of human DNA ligase IV (P49917 whole entry): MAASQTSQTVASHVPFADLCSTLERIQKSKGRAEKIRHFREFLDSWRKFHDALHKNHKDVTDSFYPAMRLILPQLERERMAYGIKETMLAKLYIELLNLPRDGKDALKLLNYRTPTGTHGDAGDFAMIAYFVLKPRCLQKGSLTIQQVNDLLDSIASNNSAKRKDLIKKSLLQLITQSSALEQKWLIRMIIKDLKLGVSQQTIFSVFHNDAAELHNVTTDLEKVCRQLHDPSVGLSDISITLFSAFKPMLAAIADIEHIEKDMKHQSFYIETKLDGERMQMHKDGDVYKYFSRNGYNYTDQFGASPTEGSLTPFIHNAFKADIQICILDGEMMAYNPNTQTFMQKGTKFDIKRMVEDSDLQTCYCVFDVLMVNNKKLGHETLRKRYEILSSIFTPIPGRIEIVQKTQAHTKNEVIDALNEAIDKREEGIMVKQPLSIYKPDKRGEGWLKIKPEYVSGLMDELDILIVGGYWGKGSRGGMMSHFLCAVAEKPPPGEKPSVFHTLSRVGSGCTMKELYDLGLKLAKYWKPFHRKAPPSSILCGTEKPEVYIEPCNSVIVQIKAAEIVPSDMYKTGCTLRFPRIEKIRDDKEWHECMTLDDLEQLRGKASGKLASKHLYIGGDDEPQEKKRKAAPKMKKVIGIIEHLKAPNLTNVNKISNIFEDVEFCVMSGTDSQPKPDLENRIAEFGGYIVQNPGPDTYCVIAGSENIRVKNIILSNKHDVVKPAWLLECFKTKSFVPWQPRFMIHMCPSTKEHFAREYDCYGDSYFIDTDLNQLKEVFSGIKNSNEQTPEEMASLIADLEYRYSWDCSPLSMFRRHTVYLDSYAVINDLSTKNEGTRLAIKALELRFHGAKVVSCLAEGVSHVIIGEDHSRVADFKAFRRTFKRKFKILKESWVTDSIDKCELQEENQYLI
Sequence of human DNA ligase IV (Q13426 whole entry partner): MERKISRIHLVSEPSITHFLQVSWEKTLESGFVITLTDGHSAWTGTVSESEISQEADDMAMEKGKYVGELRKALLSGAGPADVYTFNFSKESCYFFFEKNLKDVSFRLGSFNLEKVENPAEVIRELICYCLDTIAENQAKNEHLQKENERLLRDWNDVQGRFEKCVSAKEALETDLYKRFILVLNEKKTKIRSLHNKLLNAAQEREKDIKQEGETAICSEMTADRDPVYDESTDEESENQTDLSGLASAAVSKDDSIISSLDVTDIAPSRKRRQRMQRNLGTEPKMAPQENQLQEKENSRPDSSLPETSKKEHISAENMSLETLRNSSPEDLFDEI

Row | inhibition at 100 µM (hLigI; read-out: % of inhibition @ 100 μM (Helen's data) hLigI) [%] | IC50 (HCT116 cells [2]; cell growth, compound alone, read-out: IC50 (μM) HCT116) [µM] | IC50 (HCT116 cells [2]; sections 'high concentrations (~50 μM)' and 'active in vitro that decreased cell growth', same figures given in μM elsewhere in Table 6, read-out: IC50 HCT116 (head without unit)) [µM] | inhibition at 100 µM (human DNA ligase IV; read-out: % of inhibition @ 100 μM (Helen's data) hLigIV) [%] | inhibition at 100 µM (human DNA ligase III; read-out: % of inhibition @ 100 μM (Helen's data) hLigIII) [%] | Compound | EC50 [1] [µM] | % activity Inhibition hLigI 100 uM (hLigI; 100 uM) | inhibition at 100 µM (hLigI; read-out: In vitro % inhib hLigI 100) [%] | inhibition at 100 µM (T4 DNA ligase) [%] | inhibition at 100 µM (human DNA ligase IV; read-out: In vitro % inhib hLigIV 100) [%] | % activity Inhibition hLigIV 100 uM (human DNA ligase IV; 100 uM, Ø not defined (0 in Table 5A)) | inhibition at 100 µM (human DNA ligase III; 100 μM, read-out: In vitro % inhib hLigIII 100) [%] | inhibition at 100 µM (human DNA ligase III; 100 uM, Ø not defined (0 in Table 5A), read-out: % activity Inhibition hLigIII 100 uM) [%] | inhibition of human DNA ligase III, in words (human DNA ligase III; in vitro screen) | IC50 (MCF10A cells) [µM] | MMS: Ratios of IC50 HCT116 (HCT116 cells [3])
1 |  |  |  |  |  | N#Cc1cn(CCCCCCCc2[nH]c(=O)[nH]c(=O)c2C#N)c(=O)[nH]c1=O [Compound 209] | > 100 | Ø | 0 | 0 | 0 | Ø | 71 ± 3 | 70.5 ± 2.6 | specific for DNA ligase III |  | 
2 | < 20 | 10 to 50 | 10 to 50 | 40 | 42 | O=C(COC(=O)c1ccc2ccccc2c1O)c1cccs1 [Compound 214] |  |  |  |  |  |  |  |  |  | > 50 | ID (2)
